Assay results from the Kinase Knowledgebase extract (Sharma et al. 2016).

Molecular target: CDK2 (UniProt P24941)
Assay: Enzyme Assay

IC50 [nM] | SMILES
220 | CC(C)c1cnn2c(Nc3ccc(S(C)(=O)=O)cc3)cc(Cl)nc12
15 | N[C@H]1CC[C@H](Nc2cc(Nc3ccc(S(=O)(=O)c4ccccc4)cc3)n3ncc(Cl)c3n2)CC1
270 | COc1cc(Nc2cc(N[C@H]3CC[C@H](N)CC3)nc3c(Br)cnn23)ccc1S(=O)(=O)N(C)C
950 | CC(C)c1cnn2c(Nc3ccc(S(C)(=O)=O)cc3)cc(OC3CCCCC3)nc12
302 | CC(C)c1cnn2c(Nc3ccc(S(=O)(=O)N(C)CCO)cc3)cc(NC3CCCC3)nc12
15 | N[C@H]1CC[C@H](Oc2cc(Nc3ccc(S(=O)(=O)c4ccccc4)cc3)n3ncc(Br)c3n2)CC1
3090 | CC(C)c1cnn2c(Nc3ccc(S(=O)(=O)N(C)C)cc3)cc(Nc3ccncc3)nc12
> 50000 | CSc1cc(Nc2cc(N[C@H]3CC[C@H](N)CC3)nc3ccnn23)ccc1S(=O)(=O)N(C)C
350 | CCc1cnn2c(Nc3ccc(C(N)=O)cc3)cc(N[C@H]3CC[C@@H](N)CC3)nc12
45 | N[C@H]1CC[C@H](Oc2cc(Nc3ccc(S(=O)(=O)c4ccccc4)cc3)n3ncc(Cl)c3n2)CC1
11900 | CC(C)c1cnn2c(NC3CCN(S(=O)(=O)C(C)C)CC3)cc(N[C@H]3CC[C@H](N)CC3)nc12
240 | CC(C)c1cnn2c(Nc3ccc(S(=O)(=O)N(C)CCO)cc3)cc(OCCN(C)C)nc12
270 | CC(C)c1cnn2c(Nc3ccc(S(=O)(=O)N4CCCC4)cc3)cc(Cl)nc12
530 | CC(C)c1cnn2c(NCc3ccncc3)cc(-c3cccc(Br)c3)nc12
305 | CCNC(=O)N[C@H]1CC[C@H](Nc2cc(Nc3ccc(S(=O)(=O)N(C)C)cc3)n3ncc(C(C)C)c3n2)CC1
